Experimental data published in PMC4575386, “Intact cell mass spectrometry as a rapid and specific tool for the differentiation of toxic effects in cell-based ecotoxicological test systems” (Analytical and Bioanalytical Chemistry, 2015).
Values joined by “and” are separate entries in the source; they are usually repeats but may differ in a detail not shown here. Identical values can stand only once.

How the values were obtained:
RTL-W1 cells [1] = assay: Intact cell MALDI-TOF mass spectrometry (IC-MS) profiles after 24 h toxin exposure; format: cell-based, rainbow trout (Oncorhynchus mykiss); details: for number of IC-MS peaks that changed significantly through the toxin exposure: 24 h exposure
Description: For IC-MS studies, cells were seeded in T25 cell culture flasks with a total amount of 1.7 × 10^6 cells. […] Toxin exposure was performed according to the viability studies.
After 24 h of toxin exposure, cells were harvested and washed with PBS at 2000×g, 4 °C for 5 min (Eppendorf 5424, Hamburg, Germany) based on the method detailed by Dong et al.. The total number of cells was calculated using an automated cell counter (Cedex XS Analyzer, Roche Innovatis, Bielefeld, Germany). The cell pellets were stored at −20 °C until IC-MS analysis.
According to the calculated cell number, stock solutions with 5 × 10^4 cells per μL as well as further dilutions of 2 × 10^4 and 1 × 10^4 cells per μL were prepared with PBS und stored on ice prior to IC-MS.
Samples and matrix solutions were deposited on the MALDI-TOF MS target layer by layer and successively air dried. First, a thin layer of saturated SA in ethanol was applied to an Opti-TOF 384 well insert (Kratos Analytical, Manchester, UK), followed by 0.5 μL of the sample solution and, finally, covered with 0.5 μL of SA matrix (38 mg/ml in water/ACN/TFA 40/60/0.2 (v/v/v)) which was presented by Munteanu et al.. All sample dilutions were spotted in duplicate.
MALDI-TOF mass spectra were obtained using an Axima Confidence mass spectrometer (Shimadzu Biotech, Manchester, UK) equipped with a 337-nm nitrogen laser. The filter for regulation of the laser firing power was set to 65. To generate representative profiles, a total of 600 laser shots were accumulated and averaged for each sample. Protein mass fingerprints were obtained in the linear, positive mode at a maximal laser repetition rate of 50 Hz within a mass range of 2000 to 20,000 Da.
MALDI-TOF MS data processing was performed using the LaunchpadTM v. 2.9 software (Shimadzu Biotech). A set of 10 peaks that occurred in the majority of spectra and were evenly distributed across the whole mass range were used for internal calibration.
For peak acquisition, an average smoothing method was performed with a smoothing filter width of 50 channels and a baseline filter width of 100 channels. […] For each spotted sample, a list of spectrum peaks was generated and analyzed statistically. The masses of equally treated samples were matched and means and standard deviations of ion abundances calculated. […] For principal component analysis (PCA), relative ion abundances were calculated and data normalized according to the control treatments. […]
The 15 distinctive peaks between m/z 4562 and m/z 15,292 were analyzed for each toxin treatment: The arithmetic mean of the ion abundances was calculated from the six replicates and the direction of deviation from the control treatment was determined and tested for significance (paired two-sample t test) (Table 2).

in vitro = details: rainbow trout (Oncorhynchus mykiss)
Source text: (§1) Subsequently, medium was replaced with exposure medium.

RTL-W1 = tested on: RTL-W1; set-up: method as in PMID 24416442; details: RTL-W1, in preparation for micronucleus assays; cited from earlier work
RTL-W1 cells [2] = assay: Viability studies (CellTiter-Blue® and CellTiter-Glo®, not told apart); details: 24 h
Source text: as §1

[3] = Solubility in the culture medium (observation); format: physicochemical; details: high concentrations resulted in precipitation
RTL-W1 cells [4] = details: 24 h exposure, L15/ex medium
Description: (§2) In this study, RTL-W1, a liver cell line from rainbow trout (Oncorhynchus mykiss) was used. […] The cells were routinely grown according to the method detailed by Hinger et al. [23] at 20 °C in Leibovitz L15 medium (Biochrom, Berlin, Germany) supplemented with 10 % fetal calf serum (Biochrom), 5 mM L-alanyl-L-glutamin (Biochrom) and 1 % antibiotics (Gibco by Life Technologies). Cells were grown to approximately 90 % confluency before passaging for experimental use.
(§3) Viability studies were performed in 96-well assay plates. Cells were seeded at a density of 20,000 viable cells/well and cultivated for approximately 24 h. Subsequently, medium was replaced with exposure medium. […]
(§4) After 24 h, the cultures were assayed for viability according to the manufacturer’s instructions (Promega). After a final incubation time of 4 h for CellTiter-Blue® Viability Assay, fluorescence was recorded at 540/595 nm on Tecan infinite 200 Pro microtiter plate reader (Tecan, Männedorf, Switzerland). The integration time for luminescence detection (CellTiter-Glo® Luminescent Cell Viability Assays) on Tecan GENios Plus microtiter plate reader (Tecan) was 500 ms per well.
(§5) Statistical analysis and EC50 calculations were performed using GraphPad Prism (Graphpad Software, San Diego, USA). […] EC50 values were calculated with a sigmoid dose–response fit and automatic outlier detection.

RTL-W1 cells [5] = details: 24 h exposure, L15/ex medium; remark: listed apart in the source
Description: as §2, §3, §4, §5

RTL-W1 cells [6] = tested on: RTL-W1 cells; set-up: method as in earlier work; details: cited from earlier work
RTL-W1 cells [7] = tested on: RTL-W1 cells; set-up: method as in earlier work; details: cited from earlier work; remark: listed apart in the source

SMILES	number of IC-MS peaks that changed significantly through the toxin exposure (RTL-W1 cells [1])	viability at 24 h, 150 µM (in vitro) [%]	EC20, neutral red retention assay (RTL-W1)	viability at 24 h, 50 µM (in vitro) [%]	concentrations with significant decrease in viability (RTL-W1 cells [2]; vs control)	solubility in the culture medium [3]	IC-MS profile behavior (RTL-W1 cells [1]; 2 mg/L, lowest concentration)	viability impairment (RTL-W1 cells [2]; 9 mg/L)	EC50 cytotoxicity, CellTiter-Blue®, 24 h (RTL-W1 cells [4]) [µg/mL]	EC50 cytotoxicity, CellTiter-Glo®, 24 h (RTL-W1 cells [5]) [µg/mL]	EC50 (redox activity), literature value (RTL-W1 cells [6]) [µg/mL]	EC50 (membrane integrity), literature value (RTL-W1 cells [7]) [µg/mL]
c1ccc2nc3ccccc3cc2c1 [Acridine, acridine]	seven	~50	40.9 mg/L and 228 μM	–	–	–	–	–	–	–	–	–
O=c1cc(-c2ccccc2)oc2ccc3ccccc3c12 [BNF, β-naphthoflavone]	nine	–	–	~50	10 µM and 20 µM	low solubility	–	–	–	–	–	–
O=S(=O)([O-])[O-].[Cu+2] [Copper sulfate, copper sulfate]	eight	–	–	–	–	–	apoptotic behavior	roughly 50%	8.23	10.08	3.69	6.56
